{"source": "patent US20060217340A1", "about": "“Methods and products for treating hypertension by modulation of TRPC3 channel activity” (University of Vermont and State Agricultural College, priority 2005, published 2006)", "key": {"[1]": {"tested_on": "pressurized rat cerebral arteries", "test": "Arterial diameter recordings (constriction) in pressurized cerebral arteries", "assay_type": "cell-based", "text": "(§1) Oligodeoxynucleotide Sequences and Reverse Permeabilization. TRPC6 sense and antisense oligodeoxynucleotides (ODN's) were designed as previously described (Welsh et al 2002 Circ Res 90, 248-250) and were as follows: sense, 5′-[…]-3′ (SEQ ID: 3) and 5′-GCACACGCAGCCTCTTCAC-3′ (SEQ ID: 4) antisense, 5′-[…]-3′ (SEQ ID: 5) and 5′-[…]-3′ (SEQ ID: 6). TRPC3 sense and antisense ODN's were designed based on the rat TRPC3 gene (Ohki et al 2000 J Biol Chem 275: 39055-39060) and are as follows: sense, 5′-[…]-3′ (SEQ ID: 7) and 5′-[…]-3′ (SEQ ID: 8); anti-sense, 5′-[…]-3′ (SEQ ID: 9) and 5′-[…]-3′ (SEQ ID: 10). The last five bases on the 5′ and 3′ end were phosphorothioated in order to limit ODN degradation. For some experiments fluoroscein-isothiocyanate was conjugated to the 5′ end to allow for histological assessment of cellular uptake of the ODNs. All ODNs were synthesized and HPLC purified commercially by Qiagen (Alameda, Calif., USA). Sense and antisense ODN's (2 μM) were introduced into the arterial SMs using a reversible permeabilization procedure (Lesh et al 1995 Circ Res 77,220-230)). The arterial segments were then organ cultured for 3 days in D-MEM/F-12 culture media with L-glutamine (2 mM), penicillin (50 units/ml) and streptomycin (50 μg/ml) prior to use.\nDiameter and membrane potential recordings. Endothelial cell denuded artery segments were mounted on glass pipettes in an arteriograph chamber (Living Systems, Burlington, Vt., USA), pressurized to 20 mmHg (with no flow), and superfused with warm (37° C.), gassed (95% 02/5% CO2) physiological saline solution (PSS) containing (in mM): 119 NaCl, 4.7 KCl, 24 NaHCO3, 0.2 KH2PO4, […], 1.2 MgSO4, 1.6 CaCl2, and 10.6 glucose, pH 7.4. In experiments using Ca^2+-free PSS, CaCl2 was omitted and 3 mM EGTA and 30 μM diltiazem added. In experiments with diacylglycerol induction, 300 μM of the diacylglycerol analogue OAG (1-oleyol-2-acetyl-sn-glycerol) was added. The endothelium was removed as previously described (Sun et al 1993 Endothelium 1, 115-122). To verify endothelial cell removal the arteries were pressurized to 60 mmHg and allowed to develop myogenic tone prior to exposing the vessels to 1 μM UTP. Absence of a dilation or biphasic constrictor response to 1 μM UTP indicated successful endothelial cell removal (Marelli 2001 Am J Physiol Heart Cir Physiol 281, H1759-H1766; Miyagi et al 1996 Br J Pharmacol 118, 847-856). […] Membrane potential was measured by inserting a sharp glass electrode (≈100 MΩ resistance) containing 0.5M KCl into the vessel wall. The criteria for successful vascular smooth muscle cell impalement were: (1) a sharp negative Vm deflection on entry; (2) a stable potential for at least 1 minute after entry; and (3) a sharp positive Vm deflection upon removal. Measurements were made using an electrometer (World Precision Instruments) and the data were recorded via computer using Axotape and Dataq software. Arterial diameter was measured using a video dimension analyzer (IonOptix Corporation; Milton, Mass.).\nStatistical analysis. Data are expressed as means±SEM, and n indicates the number of animals. Changes in arterial diameter were measured as a percent constriction calculated as follows: [formula]"}, "[2]": {"tested_on": "pressurized rat cerebral arteries", "test": "Arterial wall Ca2+ concentration measurement (FURA-2) in isolated arteries", "assay_type": "cell-based", "details": "for effect on arterial wall Ca2+ or vessel diameter: absence of extracellular Ca2+", "protocol": "Diameter and membrane potential recordings. […] In experiments using Ca^2+-free PSS, CaCl2 was omitted and 3 mM EGTA and 30 μM diltiazem added. In experiments with diacylglycerol induction, 300 μM of the diacylglycerol analogue OAG (1-oleyol-2-acetyl-sn-glycerol) was added. […] To verify endothelial cell removal the arteries were pressurized to 60 mmHg and allowed to develop myogenic tone prior to exposing the vessels to 1 μM UTP. […] Arterial diameter or membrane potential (Vm) of sense and anti-sense treated arteries was measured in the absence (control) or presence of UTP (concentration range: 0.1 to 10 μM). Membrane potential was measured by inserting a sharp glass electrode (≈100 MΩ resistance) containing 0.5M KCl into the vessel wall. […] Measurements were made using an electrometer (World Precision Instruments) and the data were recorded via computer using Axotape and Dataq software. Arterial diameter was measured using a video dimension analyzer (IonOptix Corporation; Milton, Mass.).\nCa^2+ concentration measurement in isolated arteries. Mounted arteries were equilibrated in 1.6 m M PSS for 40 minutes at 37° C. (pH 7.4) prior to loading the vascular smooth muscle cells with the Ca^2+-sensitive fluorescent dye, FURA-2. To load the cells, the 1.6 mM PSS was gradually replaced over 5 minutes with HEPES solution (25° C., pH 7.4). A total of 40 μL of a premixed 100 μM FURA-2-acetoxymethyl ester solution (100 μg FURA-2, 200 μL Pluronic acid, 800 μL DMSO) was added directly to the HEPES to give a final concentration of 2 μM FURA-2 AM. Loading continued in the dark at 25° C. (pH 7.4) for 40 minutes. At the end of the loading period, the HEPES was replaced with 1.6 mM PSS (35° C., pH 7.4) and 30 minutes was allowed for complete de-esterification of the FURA-2 AM before [Ca^2+]c measurements were made. FURA-2 fluorescence was measured using a photomultiplier system (IonOptix Corporation; Milton, Mass., USA) in which background-corrected ratios of the 510-nm emission from arteries alternatively excited at 340 and 380 nm were obtained at a sampling rate of 5 Hz."}, "[3]": {"tested_on": "cerebral artery SMCs", "test": "Membrane potential recordings in pressurized cerebral arteries", "assay_type": "cell-based, rat", "text": "as §1\nDiameter and membrane potential recordings. Endothelial cell denuded artery segments were mounted on glass pipettes in an arteriograph chamber (Living Systems, Burlington, Vt., USA), pressurized to 20 mmHg (with no flow), and superfused with warm (37° C.), gassed (95% 02/5% CO2) physiological saline solution (PSS) containing (in mM): 119 NaCl, 4.7 KCl, 24 NaHCO3, 0.2 KH2PO4, […], 1.2 MgSO4, 1.6 CaCl2, and 10.6 glucose, pH 7.4. In experiments using Ca^2+-free PSS, CaCl2 was omitted and 3 mM EGTA and 30 μM diltiazem added. In experiments with diacylglycerol induction, 300 μM of the diacylglycerol analogue OAG (1-oleyol-2-acetyl-sn-glycerol) was added. The endothelium was removed as previously described (Sun et al 1993 Endothelium 1, 115-122). To verify endothelial cell removal the arteries were pressurized to 60 mmHg and allowed to develop myogenic tone prior to exposing the vessels to 1 μM UTP. Absence of a dilation or biphasic constrictor response to 1 μM UTP indicated successful endothelial cell removal (Marelli 2001 Am J Physiol Heart Cir Physiol 281, H1759-H1766; Miyagi et al 1996 Br J Pharmacol 118, 847-856). Arterial diameter or membrane potential (Vm) of sense and anti-sense treated arteries was measured in the absence (control) or presence of UTP (concentration range: 0.1 to 10 μM). Membrane potential was measured by inserting a sharp glass electrode (≈100 MΩ resistance) containing 0.5M KCl into the vessel wall. The criteria for successful vascular smooth muscle cell impalement were: (1) a sharp negative Vm deflection on entry; (2) a stable potential for at least 1 minute after entry; and (3) a sharp positive Vm deflection upon removal. Measurements were made using an electrometer (World Precision Instruments) and the data were recorded via computer using Axotape and Dataq software. Arterial diameter was measured using a video dimension analyzer (IonOptix Corporation; Milton, Mass.)."}, "[4]": {"details": "1 μM nimodipine, extracellular Ca2+ re-introduced in the presence of UTP"}, "[5]": {"details": "OAG, Sprague Dawley, WKY and SHR rats"}, "[6]": {"details": "2 μM thapsigargin, presence of UTP, n=3"}, "[7]": {"details": "Gd3+ given prior to re-introduction of extracellular Ca2+"}, "[8]": {"details": "30 μM UTP in PSS, first exposure"}, "[9]": {"details": "in the presence of UTP, steady state"}}, "data": [{"compound": "COCCOC(=O)C1=C(C)NC(C)=C(C(=O)OC(C)C)C1c1cccc([N+](=O)[O-])c1", "note": "(stereo not shown) [nimodipine]", "values": [{"measurement": "UTP-induced vasoconstriction", "setting": "[1]; [4]", "result": "29±3", "unit": "%"}, {"measurement": "UTP-induced increase in arterial wall Ca2+", "setting": "[2]; [4]", "result": "94 ± 10", "unit": "nM"}, {"measurement": "share of extracellular Ca2+ influx entering through the L-type Ca2+ channel", "setting": "[2]; re-admission of Ca2+ in the presence of UTP", "result": "about 30%"}]}, {"compound": "Cn1c(=O)c2c(ncn2C)n(C)c1=O", "note": "[caffeine]", "values": [{"measurement": "% constriction", "setting": "[1]; 10 mM caffeine, PSS containing Ca2+, transient", "result": "31±6", "unit": "%"}, {"measurement": "peak [Ca2+]c", "setting": "[2]; 10 mM caffeine, PSS containing Ca2+", "result": "227 ± 42", "unit": "nM"}, {"measurement": "effect on arterial wall Ca2+ or vessel diameter", "setting": "[2]", "result": "neither UTP (FIG. 11 and FIG. 12) nor caffeine (FIG. 11A) affected"}]}, {"compound": "CCCCCCCC/C=C\\CCCCCCCC(=O)OC[C@H](CO)OC(C)=O", "note": "[OAG, 1-oleoyl-2-acetyl-sn-glycerol]", "values": [{"measurement": "constriction of arteries from SHR compared with normotensive rats", "setting": "[1]; [5]", "result": "significantly larger increases"}, {"measurement": "increase in calcium concentration, arteries from SHR compared with normotensive rats", "setting": "[2]; [5]", "result": "significantly larger increases"}]}, {"compound": "C/C=C(/C)C(=O)O[C@H]1C(C)=C2[C@H]([C@@H]1OC(=O)CCCCCCC)[C@@](C)(OC(C)=O)C[C@H](OC(=O)CCC)[C@@]1(O)[C@H]2OC(=O)[C@@]1(C)O", "note": "[thapsigargin]", "values": [{"measurement": "diameter decrease when extracellular Ca2+ reintroduced", "setting": "[1]; [6]", "result": "39±6", "unit": "%"}, {"measurement": "arterial wall Ca2+ when extracellular Ca2+ reintroduced", "setting": "[2]; [6]", "result": "116 ± 29", "unit": "nM"}]}, {"compound": "5′-GGAGTTCAGACTGGCTAGGG-3′ (SEQ ID: 5) and 5′-GCACACGCAGCCTCCTTCAC-3′ (SEQ ID: 6) (DNA, backbone not given here; further chemistry not fully specified) [TRPC6 antisense, TRPC6 antisense oligodeoxynucleotides designed as previously described (Welsh et al 2002)]", "values": [{"measurement": "UTP-induced depolarization, TRPC6 antisense- versus sense-treated group", "setting": "[3]; exposure to UTP", "result": "no difference"}, {"measurement": "magnitude of constriction", "setting": "[1]; increasing concentrations of UTP", "result": "did not affect"}]}, {"compound": "[Gd+3]", "note": "[Gd^3+]", "values": [{"measurement": "effect on vasoconstriction after Ca2+ return in the presence of UTP", "setting": "[1]; 30 μM Gd3+, nimodipine present", "result": "reverses"}, {"measurement": "vasoconstriction in response to UTP", "setting": "[1]; [7]", "result": "nor did vasoconstriction occur"}, {"measurement": "effect on increase in arterial wall Ca2+ after Ca2+ return in the presence of UTP", "setting": "[2]; 30 μM Gd3+, nimodipine present", "result": "reverses"}, {"measurement": "arterial wall Ca2+ response to UTP", "setting": "[2]; [7]", "result": "did not increase"}]}, {"compound": "O=c1ccn([C@@H]2O[C@H](COP(=O)(O)OP(=O)(O)OP(=O)(O)O)[C@@H](O)[C@H]2O)c(=O)[nH]1", "note": "[UTP, uridine triphosphate]", "values": [{"measurement": "depolarization of arterial SMCs", "setting": "[3]; micromolar concentrations of UTP", "result": "approximately 20 mV"}, {"measurement": "sustained decrease in lumen diameter", "setting": "[1]; [8]", "result": "49±4", "unit": "%"}, {"measurement": "vessel response in Ca2+ free PSS", "setting": "[1]; continued presence of UTP", "result": "completely relax"}, {"measurement": "decrease in lumen diameter (vasoconstriction) after returning extracellular Ca2+", "setting": "[1]; [9]", "result": "48±5", "unit": "%"}, {"measurement": "initial peak increase in arterial wall Ca2+", "setting": "[2]; 30 μM UTP in PSS containing Ca2+, n=8", "result": "291 ± 45", "unit": "nM"}, {"measurement": "steady state arterial wall [Ca2+]", "setting": "[2]; [8]", "result": "145 ± 10", "unit": "nM"}, {"measurement": "effect on arterial wall Ca2+ or vessel diameter", "setting": "[2]", "result": "neither UTP (FIG. 11 and FIG. 12) nor caffeine (FIG. 11A) affected"}, {"measurement": "arterial wall [Ca2+] in Ca2+ free PSS", "setting": "[2]; continued presence of UTP", "result": "decline below the resting level"}, {"measurement": "arterial wall Ca2+ after returning extracellular Ca2+", "setting": "[2]; [9]", "result": "139 ± 15", "unit": "nM"}]}]}
